Literature values in patent publication US5503831A, “Lipase inhibitor derived from a defatted rice germ” (Yakurigaku Chuo Kenkyusho, priority 1993, dated 1996).

Test system: lipase
Conditions: in the presence of bile acids (sodium taurocholic acid for wheat germ protein), emulsified lipids

For β-lactoglobulin, the “Action on lipase in the presence of bile acids” value is listed as “does not exert such an action”.
In the case of serum albumin, the “Action on lipase in the presence of bile acids” value is listed as “does not exert such an action”.
